# Assay results reported in US20110059114A1, “Compositions and Methods for the Treatment of Radioresistant Glioma Stem Cells” (DUKE UNIVERSITY, priority 2009, published 2011).
# How the values were obtained:
# T4302 CD133+ cells = test: Annexin V staining, flow cytometry; assay type: cell-based, human
# Procedure: FIG. 2 is a series of graphs illustrating that γ-secretase inhibitors enhance radiation-induced cell death in glioma stem cells. (A) T4302 CD 133+ cells were pre-treated with DAPT or L685,458 for 4 hours and irradiated at 3 Gy. Percentage of dead cells was determined by trypan blue exclusion assay at 48 hours after radiation exposure. (B) T4302 CD 133+ cells were treated with GSIs ±radiation as indicated. Cells were then plated at 3000 cells per well in 96-well plates. Relative caspase 3/7 activities were determined by normalizing caspase activities to the corresponding cell titers. (C) T4302 CD 133+ cells were treated as described in FIG. 2A. 24 or 48 hours after radiation exposure, cells were labeled with FITC-conjugated Annexin V staining kit (BD Sciences) according to manufacturer's instructions and analyzed by flow cytometry. (D) T4302 CD 133+ cells were pre-treated with 2 μM DAPT for 4 hours, and were left unirradiated or irradiated at 1, 2 or 3 Gy. Relative caspase 3/7 activities were determined at 72 hours after radiation. (E) T4302 CD133+ cells were pre-treated with DAPT at indicated concentrations for 4 hours and irradiated at 3 Gy. Relative caspase activities were determined at 48 or 72 hours after radiation. *: p<0.01 by Student's t-test; #: p<0.01 by one-way ANOVA.
# γ-secretase = conditions: as suggested by the manufacturer; cited from earlier work
# Akt = test: Immunoblotting of phospho-Akt (S473); assay type: cell-based, human; conditions: 2 μM DAPT
# Procedure: FIG. 5 is a set of immunoblots and a graph illustrating that the Notch pathway regulates radioresistance of glioma stem cells via the Akt pathway and Mcl-1. T4302 CD 133+ cells were infected with control lentivirus or lentivirus directing expression of NICD2. Cells were pre-treated with or without 2 μM DPAT for 4 hours and exposed to 3-Gy radiation. Irradiated cells were collected at 24 or 48 hours after radiation, and sham-irradiated cells were collected at 48 hours after radiation. (A, C, D) Protein levels of phospho-Akt (S473), total Akt, PTEN, Bcl-2, Bcl-xL, Mcl-1, phospho-p53 (S15), total p53 and PUMA were assessed by immunoblotting. Actin was blotted as the loading control. (B) Control cells or NICD2-expressing cells were pre-treated with 10 μM PI3K inhibitor, LY294002, or 50 μM Akt inhibitor III (SH-6), for 4 hours prior to radiation exposure. Relative caspase 3/7 activities were determined at 48 hours after radiation exposure. #: p<0.001, by one-way ANOVA.
# FIG. 13 is an immunoblot illustrating that LY294002 or Akt inhibitor III reduce Akt activity in glioma stem cells. T4302 glioma stem cells were treated with 10 μM LY294002 or 50 μM Akt inhibitor III (SH-6) in the presence or absence of radiation. Cells were collected for immunoblotting at 48 hours after radiation as described in FIG. 5.
# Antibodies, DNA constructs, lentiviruses and other reagents. […]
# Chk1 and Chk2 = test: Immunoblotting of activating phosphorylation of Chk1 and Chk2; assay type: cell-based, human; conditions: following radiation, pretreated 24 hours
# Procedure: (A) T4302 CD133+ cells were pretreated with DPAT or L685,458 for 24 hours prior radiation. One hour after radiation exposure, cells were harvested. The levels of activating phosphorylation of Chk1 and Chk2 were assessed by immunoblotting. (B) T4302 CD133+ cells were treated with 2 μM DAPT at 4, 24 hours prior to radiation (−24 hrs, or -4 hrs), or at 0, 4, 24 hours after radiation. Relative caspase 3/7 activities were measured 3 days after radiation exposure. *: p<0.001 by Student's t-test.
# Antibodies, DNA constructs, lentiviruses and other reagents. The antibodies purchased from Cell Signaling Technology (Danvers, M A) include phosphor-S296-Chk1 (2349), total Chk1 (2345), phosphor-T68-Chk2 (2661), total Chk2 (2662), phospho-5473 Akt (#9271), total Akt (#9272), PTEN (#9556), phospho-S15-p53 (#9286), Bcl-2 (#2870), Bcl-xL (#2764), Mcl-1 (#4572), Puma (#4976). Other antibodies used in this study are p53 antibody (#sc-126, Santa Cruz Biotechnology, Santa Cruz, Calif.), and actin antibody (Millipore, Billerica, Mass.). The pcDNA3-Notch1 construct was kindly provided by Dr. Spyros Artavanis-Tsakonas, Harvard University. The coding sequences of intracellular domain of Notch1 (amino acid residues 1744-2556) was amplified by PCR and subcloned into the lentiviral vector pCDH-CMV-EF1-puro (System Biosciences, Mountain View, Calif.) through the EcoRI and NotI sites. […]
compound,measurement,setting,value
"CC(NC(=O)Cc1cc(F)cc(F)c1)C(=O)NC(C(=O)OC(C)(C)C)c1ccccc1 [DAPT, N-[N-(3,5-Difluorophenacetyl-L-alanyl)]-S-phenylglycine t-Butyl Ester]",Annexin V-positive labeled cells,T4302 CD133+ cells; 24 hours following 3 Gy radiation,not obvious
same,Annexin V-positive labeled cells,T4302 CD133+ cells; 48 hours following 3 Gy radiation,significantly increased
same,percentage of Annexin V-positive cells,T4302 CD133+ cells; NICD2 expression,failed to increase
same,IC50,γ-secretase,200 nM
same,Akt activation (phospho-S473 Akt),"Akt; 3-Gy radiation, control cells",reduced Akt activation
same,Akt activities increased by NICD2 expression,Akt; NICD2-expressing cells,partially attenuated but not abolished
same,activating phosphorylation of Chk1 or Chk2,Chk1 and Chk2,"Neither of DAPT or L685,458 significantly altered"
